Laboratory results as given in patent US20250163104A1, “MACROCYCLIC IMMUNOMODULATORS” (priority 2021, published 2025).
Where a SMILES comes first, the peptide text is derived from it. Bridges are numbered along the chain shown (N, C = ends). [ ]: non-standard residue; d: D form. Bip(4'-NHAc) = CC(=O)Nc1ccc(-c2ccc(C[C@H](N)C(=O)O)cc2)cc1; Ala(4-isoquinolinyl) = N[C@@H](Cc1cncc2ccccc12)C(=O)O; Phe(3,4,5-F3) = N[C@@H](Cc1cc(F)c(F)c(F)c1)C(=O)O; Phe(3,4-Cl2) = N[C@@H](Cc1ccc(Cl)c(Cl)c1)C(=O)O; Phe(3,4-F2) = N[C@@H](Cc1ccc(F)c(F)c1)C(=O)O; Phe(3,5-F2) = N[C@@H](Cc1cc(F)cc(F)c1)C(=O)O; Bip = N[C@@H](Cc1ccc(-c2ccccc2)cc1)C(=O)O; Gla = N[C@@H](CC(C(=O)O)C(=O)O)C(=O)O; hPhe = N[C@@H](CCc1ccccc1)C(=O)O; Aad = N[C@@H](CCCC(=O)O)C(=O)O; Cha = N[C@@H](CC1CCCCC1)C(=O)O; Cit = NC(=O)NCCC[C@H](N)C(=O)O; hSer = N[C@@H](CCO)C(=O)O; Orn = NCCC[C@H](N)C(=O)O; Dab = NCC[C@H](N)C(=O)O; Dap = NC[C@H](N)C(=O)O

target: T1, human PD-1 / PD-L1-Ig binding on Jurkat cell line over-expressing human PD-1 (Jurkat-PD-1) (Homo sapiens, UniProt Q15116); test: Jurkat-PD-1 Cell Binding High-Content Screening Assay (CBA); assay type: cell-based; details: Jurkat-PD-1 cells, PE-labeled PD-L1-Ig 20 nM final; read-out: Jurkat HPD1_PDL1 IC50
T1 construct: expressed in transfected cells; host or cells: Jurkat
Summary of the method: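 Compounds were preincubated with Jurkat-hPD-1 cells in DMEM plus 10% fetal calf serum for 2 h at 37° C. Phycoerythrin-labeled PD-L1-Ig (20 nM final) was then added for 1 hour. Cells were fixed in 4% paraformaldehyde with Hoechst 33342, and bound fluorescence was quantified by high-content imaging.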

T1 sequence (Q15116 25-288): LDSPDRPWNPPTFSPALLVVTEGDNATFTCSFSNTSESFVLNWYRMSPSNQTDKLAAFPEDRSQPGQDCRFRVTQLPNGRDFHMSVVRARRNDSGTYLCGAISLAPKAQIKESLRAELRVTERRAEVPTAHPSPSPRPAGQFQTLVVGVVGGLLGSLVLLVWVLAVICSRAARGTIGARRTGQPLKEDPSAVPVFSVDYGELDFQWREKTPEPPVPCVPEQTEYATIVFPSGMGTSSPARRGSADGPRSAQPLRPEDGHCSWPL

Structure (SMILES) | IC50 [nM]
CC(C)C[C@H]1NC(=O)[C@H](CCCN)NC(=O)[C@H](CCCNC(N)=O)NC(=O)[C@H](Cc2ccc(-c3ccccc3)cc2)NC(=O)[C@H](C(C)C)NC(=O)[C@H](Cc2c[nH]c3ccccc23)NC(=O)[C@H](CC(=O)O)NC(=O)[C@H](Cc2cncc3ccccc23)NC(=O)[C@H](CN)NC(=O)CSC[C@@H](C(=O)N[C@@H](C)C(N)=O)NC(=O)[C@H]([C@@H](C)O)NC(=O)[C@H](C(C)C)NC(=O)[C@H](CC2CCCCC2)NC(=O)[C@H](CCN)NC1=O [Compound 2118] ({CH2CO}-[Dap][Ala(4-isoquinolinyl)]DWV[Bip][Cit][Orn][dL][Dab][Cha]VTCA-NH2; thioether N-14) | 62.6
CC(C)C[C@H]1NC(=O)[C@H](CCCN)NC(=O)[C@H](CCCNC(N)=O)NC(=O)[C@H](Cc2ccc(-c3ccccc3)cc2)NC(=O)[C@H](C(C)C)NC(=O)[C@H](Cc2c[nH]c3ccccc23)NC(=O)[C@H](CC(=O)O)NC(=O)[C@H](CC(=O)O)NC(=O)[C@H](CN)NC(=O)CSC[C@@H](C(=O)N[C@@H](C)C(N)=O)NC(=O)[C@H]([C@@H](C)O)NC(=O)[C@H](C(C)C)NC(=O)[C@H](CC2CCCCC2)NC(=O)[C@H](CCN)NC1=O [Compound 2120] ({CH2CO}-[Dap]DDWV[Bip][Cit][Orn][dL][Dab][Cha]VTCA-NH2; thioether N-14) | 964
CC(C)C[C@H]1NC(=O)[C@H](CCCN)NC(=O)[C@H](CCCNC(N)=O)NC(=O)[C@H](Cc2ccc(-c3ccccc3)cc2)NC(=O)[C@H](C(C)C)NC(=O)[C@H](Cc2c[nH]c3ccccc23)NC(=O)[C@H](CC(=O)O)NC(=O)[C@H](CCC(=O)O)NC(=O)[C@H](CN)NC(=O)CSC[C@@H](C(=O)N[C@@H](C)C(N)=O)NC(=O)[C@H]([C@@H](C)O)NC(=O)[C@H](C(C)C)NC(=O)[C@H](CC2CCCCC2)NC(=O)[C@H](CCN)NC1=O [Compound 2121] ({CH2CO}-[Dap]EDWV[Bip][Cit][Orn][dL][Dab][Cha]VTCA-NH2; thioether N-14) | 232
CC(C)C[C@H]1NC(=O)[C@H](CCCN)NC(=O)[C@H](CCCNC(N)=O)NC(=O)[C@H](Cc2ccc(-c3ccccc3)cc2)NC(=O)[C@H](C(C)C)NC(=O)[C@H](Cc2c[nH]c3ccccc23)NC(=O)[C@H](CC(=O)O)NC(=O)[C@H](Cc2c[nH]c3ccccc23)NC(=O)[C@H](CN)NC(=O)CSC[C@@H](C(=O)N[C@@H](C)C(N)=O)NC(=O)[C@H]([C@@H](C)O)NC(=O)[C@H](C(C)C)NC(=O)[C@H](CC2CCCCC2)NC(=O)[C@H](CCN)NC1=O [Compound 2122] ({CH2CO}-[Dap]WDWV[Bip][Cit][Orn][dL][Dab][Cha]VTCA-NH2; thioether N-14) | 31.3
CC(=O)Nc1ccc(-c2ccc(C[C@@H]3NC(=O)[C@H](CN)NC(=O)CSC[C@@H](C(=O)N[C@@H](C)C(N)=O)NC(=O)[C@H]([C@@H](C)O)NC(=O)[C@H](C(C)C)NC(=O)[C@H](CC4CCCCC4)NC(=O)[C@H](CCN)NC(=O)[C@@H](CC(C)C)NC(=O)[C@H](CCCN)NC(=O)[C@H](CCCNC(N)=O)NC(=O)[C@H](Cc4ccc(-c5ccccc5)cc4)NC(=O)[C@H](C(C)C)NC(=O)[C@H](Cc4c[nH]c5ccccc45)NC(=O)[C@H](CC(=O)O)NC3=O)cc2)cc1 [Compound 2124] ({CH2CO}-[Dap][Bip(4'-NHAc)]DWV[Bip][Cit][Orn][dL][Dab][Cha]VTCA-NH2; thioether N-14) | 22.6
CC(C)C[C@H]1NC(=O)[C@H](CCCN)NC(=O)[C@H](CCCNC(N)=O)NC(=O)[C@H](Cc2ccc(-c3ccccc3)cc2)NC(=O)[C@H](C(C)C)NC(=O)[C@H](Cc2c[nH]c3ccccc23)NC(=O)[C@H](CC(=O)O)NC(=O)[C@H](CCCC(=O)O)NC(=O)[C@H](CN)NC(=O)CSC[C@@H](C(=O)N[C@@H](C)C(N)=O)NC(=O)[C@H]([C@@H](C)O)NC(=O)[C@H](C(C)C)NC(=O)[C@H](CC2CCCCC2)NC(=O)[C@H](CCN)NC1=O [Compound 2125] ({CH2CO}-[Dap][Aad]DWV[Bip][Cit][Orn][dL][Dab][Cha]VTCA-NH2; thioether N-14) | 57.1
CC(C)C[C@H]1NC(=O)[C@H](CCCN)NC(=O)[C@H](CCCNC(N)=O)NC(=O)[C@H](Cc2ccc(-c3ccccc3)cc2)NC(=O)[C@H](C(C)C)NC(=O)[C@H](Cc2c[nH]c3ccccc23)NC(=O)[C@H](CC(=O)O)NC(=O)[C@H](CCc2ccccc2)NC(=O)[C@H](CN)NC(=O)CSC[C@@H](C(=O)N[C@@H](C)C(N)=O)NC(=O)[C@H]([C@@H](C)O)NC(=O)[C@H](C(C)C)NC(=O)[C@H](CC2CCCCC2)NC(=O)[C@H](CCN)NC1=O [Compound 2126] ({CH2CO}-[Dap][hPhe]DWV[Bip][Cit][Orn][dL][Dab][Cha]VTCA-NH2; thioether N-14) | 7.9
CC(C)C[C@H]1NC(=O)[C@H](CCCN)NC(=O)[C@H](CCCNC(N)=O)NC(=O)[C@H](Cc2ccc(-c3ccccc3)cc2)NC(=O)[C@H](C(C)C)NC(=O)[C@H](Cc2c[nH]c3ccccc23)NC(=O)[C@H](CC(=O)O)NC(=O)[C@H](Cc2cc(F)c(F)c(F)c2)NC(=O)[C@H](CN)NC(=O)CSC[C@@H](C(=O)N[C@@H](C)C(N)=O)NC(=O)[C@H]([C@@H](C)O)NC(=O)[C@H](C(C)C)NC(=O)[C@H](CC2CCCCC2)NC(=O)[C@H](CCN)NC1=O [Compound 2127] ({CH2CO}-[Dap][Phe(3,4,5-F3)]DWV[Bip][Cit][Orn][dL][Dab][Cha]VTCA-NH2; thioether N-14) | 47.4
CC(C)C[C@H]1NC(=O)[C@H](CCCN)NC(=O)[C@H](CCCNC(N)=O)NC(=O)[C@H](Cc2ccc(-c3ccccc3)cc2)NC(=O)[C@H](C(C)C)NC(=O)[C@H](Cc2c[nH]c3ccccc23)NC(=O)[C@H](CC(=O)O)NC(=O)[C@H](Cc2cccs2)NC(=O)[C@H](CN)NC(=O)CSC[C@@H](C(=O)N[C@@H](C)C(N)=O)NC(=O)[C@H]([C@@H](C)O)NC(=O)[C@H](C(C)C)NC(=O)[C@H](CC2CCCCC2)NC(=O)[C@H](CCN)NC1=O [Compound 2128] | 7.5
CC(C)C[C@H]1NC(=O)[C@H](CCCN)NC(=O)[C@H](CCCNC(N)=O)NC(=O)[C@H](Cc2ccc(-c3ccccc3)cc2)NC(=O)[C@H](C(C)C)NC(=O)[C@H](Cc2c[nH]c3ccccc23)NC(=O)[C@H](CC(=O)O)NC(=O)[C@H](Cc2ccc(F)c(F)c2)NC(=O)[C@H](CN)NC(=O)CSC[C@@H](C(=O)N[C@@H](C)C(N)=O)NC(=O)[C@H]([C@@H](C)O)NC(=O)[C@H](C(C)C)NC(=O)[C@H](CC2CCCCC2)NC(=O)[C@H](CCN)NC1=O [Compound 2129] ({CH2CO}-[Dap][Phe(3,4-F2)]DWV[Bip][Cit][Orn][dL][Dab][Cha]VTCA-NH2; thioether N-14) | 48.2
CC(C)C[C@H]1NC(=O)[C@H](CCCN)NC(=O)[C@H](CCCNC(N)=O)NC(=O)[C@H](Cc2ccc(-c3ccccc3)cc2)NC(=O)[C@H](C(C)C)NC(=O)[C@H](Cc2c[nH]c3ccccc23)NC(=O)[C@H](CC(=O)O)NC(=O)[C@H](Cc2ccc(Cl)c(Cl)c2)NC(=O)[C@H](CN)NC(=O)CSC[C@@H](C(=O)N[C@@H](C)C(N)=O)NC(=O)[C@H]([C@@H](C)O)NC(=O)[C@H](C(C)C)NC(=O)[C@H](CC2CCCCC2)NC(=O)[C@H](CCN)NC1=O [Compound 2130] ({CH2CO}-[Dap][Phe(3,4-Cl2)]DWV[Bip][Cit][Orn][dL][Dab][Cha]VTCA-NH2; thioether N-14) | 96.6
CC(C)C[C@H]1NC(=O)[C@H](CCCN)NC(=O)[C@H](CCCNC(N)=O)NC(=O)[C@H](Cc2ccc(-c3ccccc3)cc2)NC(=O)[C@H](C(C)C)NC(=O)[C@H](Cc2c[nH]c3ccccc23)NC(=O)[C@H](CC(=O)O)NC(=O)[C@H](Cc2cc(F)cc(F)c2)NC(=O)[C@H](CN)NC(=O)CSC[C@@H](C(=O)N[C@@H](C)C(N)=O)NC(=O)[C@H]([C@@H](C)O)NC(=O)[C@H](C(C)C)NC(=O)[C@H](CC2CCCCC2)NC(=O)[C@H](CCN)NC1=O [Compound 2131] ({CH2CO}-[Dap][Phe(3,5-F2)]DWV[Bip][Cit][Orn][dL][Dab][Cha]VTCA-NH2; thioether N-14) | 37.2
CC(C)C[C@H]1NC(=O)[C@H](CCCN)NC(=O)[C@H](CCCNC(N)=O)NC(=O)[C@H](Cc2ccc(-c3ccccc3)cc2)NC(=O)[C@H](C(C)C)NC(=O)[C@H](Cc2c[nH]c3ccccc23)NC(=O)[C@H](CC(=O)O)NC(=O)[C@H](Cc2ccc(C(=O)c3ccccc3)cc2)NC(=O)[C@H](CN)NC(=O)CSC[C@@H](C(=O)N[C@@H](C)C(N)=O)NC(=O)[C@H]([C@@H](C)O)NC(=O)[C@H](C(C)C)NC(=O)[C@H](CC2CCCCC2)NC(=O)[C@H](CCN)NC1=O [Compound 2132] | 65.2
COCC[C@@H]1NC(=O)[C@H](CN)NC(=O)CSC[C@@H](C(=O)N[C@@H](C)C(N)=O)NC(=O)[C@H]([C@@H](C)O)NC(=O)[C@H](C(C)C)NC(=O)[C@H](CC2CCCCC2)NC(=O)[C@H](CCN)NC(=O)[C@@H](CC(C)C)NC(=O)[C@H](CCCN)NC(=O)[C@H](CCCNC(N)=O)NC(=O)[C@H](Cc2ccc(-c3ccccc3)cc2)NC(=O)[C@H](C(C)C)NC(=O)[C@H](Cc2c[nH]c3ccccc23)NC(=O)[C@H](CC(=O)O)NC1=O [Compound 2133] ({CH2CO}-[Dap][hSer](Me)DWV[Bip][Cit][Orn][dL][Dab][Cha]VTCA-NH2; thioether N-14) | 24.6
CC(C)C[C@H]1NC(=O)[C@H](CCCN)NC(=O)[C@H](CCCNC(N)=O)NC(=O)[C@H](Cc2ccc(-c3ccccc3)cc2)NC(=O)[C@H](C(C)C)NC(=O)[C@H](Cc2c[nH]c3ccccc23)NC(=O)[C@H](CC(=O)O)NC(=O)[C@H](CC(C(=O)O)C(=O)O)NC(=O)[C@H](CN)NC(=O)CSC[C@@H](C(=O)N[C@@H](C)C(N)=O)NC(=O)[C@H]([C@@H](C)O)NC(=O)[C@H](C(C)C)NC(=O)[C@H](CC2CCCCC2)NC(=O)[C@H](CCN)NC1=O [Compound 2134] ({CH2CO}-[Dap][Gla]DWV[Bip][Cit][Orn][dL][Dab][Cha]VTCA-NH2; thioether N-14) | 365
